# From PMC7730182, “Synthesis and in Silico Modelling of the Potential Dual Mechanistic Activity of Small Cationic Peptides Potentiating the Antibiotic Novobiocin against Susceptible and Multi-Drug Resistant Escherichia coli” (International Journal of Molecular Sciences, 2020)
# Where no end group is shown, it is not given here.
# Key:
# [1] = system: multidrug resistant clinical isolate E. coli G69; assay: Norfloxacin potentiation assay (MIC of norfloxacin with fixed concentration of peptide or PAβN); type: cell-based, Escherichia coli; conditions: broth microdilution, duplicate; for MIC of norfloxacin, E. coli G69, +128 μg/mL of peptide: fixed 128 μg/mL peptide
# Protocol: (§1) In order to gather more evidence on the potential mechanisms of action, the effects of the peptides in combination with the quinolone antibiotic norfloxacin were determined. Norfloxacin is active against Gram-negative bacteria, generally achieving entry via porin channels, but is also able to enter the bacterial cell via the membrane in porin-deficient mutants. Therefore, any membrane permeability mechanism would not be expected to have a significant effect on improving the activity of norfloxacin in porin-competent strains. This is indeed what was observed (Table S5), which added weight to our hypothesis that our very short peptides may be acting as membrane permeability enhancers for novobiocin.
# (§2) The antibacterial activity of the peptides and peptide/antibiotic combinations were tested by the broth microdilution assay according to [24]. Escherichia coli NCTC 10,418 and Staphylococcus aureus NCTC 12,981 were obtained from the National Collection of Type Cultures, UK. Escherichia coli G69 was a clinical isolate as previously described.
# (§3) Briefly, all bacterial strains were cultured on nutrient agar (Sigma-Aldrich, Gillingham, UK) plates and incubated for 24 h at 37 °C prior to MIC determination. In addition, known quantities of each test sample were dissolved in DMSO and then diluted in ISB (Iso- Sensitest Broth, Oxoid, Basingstoke, UK) to give a range concentration of 128–0 μg/mL, unless stated differently. […] Finally, the overnight cultures of each of the tested strains were suspended to an inoculum density of approximately 1.0 × 10^8 CFU/mL in phosphate buffered saline (PBS), consisting of 137 mM NaCl, 3 mM KCl, 8 mM Na2HPO4, and […] (Oxoid, Basingstoke, UK). The cell suspensions were standardized by adjusting the optical density to 0.1 at 600 nm (Thermo Scientific UV-Vis Spectrophotometer, Abingdon, UK) before being diluted 1:100 in ISB prior to inoculation […]
# (§4) The assays were performed by microdilution using 96-well microtiter plates with a final inoculum of 5 × 10^5 CFU/mL and each sample was tested in duplicate in at least two independent experiments in order to confirm the reliability of the data. Results were determined by visual inspection of the wells and the presence of an evident opaque medium or white pellets were indicative of bacterial growth. The MIC values were recorded as the lowest concentration at which no bacterial growth was detected. […]
# (§5) potentiating novobiocin. Assays were performed at fixed concentration of 128 μg/mL against susceptible E. coli 10418 and multidrug resistant clinical isolate E. coli G69. Potentiation assay for norfloxacin was also performed in presence of 64 μg/mL of RND efflux pump inhibitor PAβN. All tests were repeated in […]
# (§6) Compound Sequence MIC of norfloxacin (μg/mL) […]
# (§7) inhibitor PaβN but no potentiation was observed, so the assay was not repeated at lower concentrations.
# [2] = system: susceptible E. coli 10418; assay: as above; type: cell-based, Escherichia coli; conditions: broth microdilution, duplicate; for MIC of norfloxacin, E. coli 10418, +128 μg/mL of peptide: fixed 128 μg/mL peptide
# Protocol: as §1, §2, §3, §4, §5, §6, §7
# [3] = system: Escherichia coli NCTC 10418; assay: microbe, parasite or virus in culture; type: cell-based; conditions: for MIC: Escherichia coli, NCTC10418, compound alone, broth microdilution, Iso-Sensitest Broth, range 128–0 μg/mL, 5 × 10^5 CFU/mL, visual read-out, duplicate, read-out: MIC, E. coli NCTC 10418
# Protocol: (§8) The Minimum Inhibitory Concentrations (MIC) of compounds 1–27 were evaluated through a broth microdilution assay against susceptible strains of Escherichia coli (Gram–negative) and Staphylococcus aureus (Gram-positive).
# as §2
# (§9) Briefly, all bacterial strains were cultured on nutrient agar (Sigma-Aldrich, Gillingham, UK) plates and incubated for 24 h at 37 °C prior to MIC determination. In addition, known quantities of each test sample were dissolved in DMSO and then diluted in ISB (Iso- Sensitest Broth, Oxoid, Basingstoke, UK) to give a range concentration of 128–0 μg/mL, unless stated differently. […] Finally, the overnight cultures of each of the tested strains were suspended to an inoculum density of approximately 1.0 × 10^8 CFU/mL in phosphate buffered saline (PBS), consisting of 137 mM NaCl, 3 mM KCl, 8 mM Na2HPO4, and […] (Oxoid, Basingstoke, UK). The cell suspensions were standardized by adjusting the optical density to 0.1 at 600 nm (Thermo Scientific UV-Vis Spectrophotometer, Abingdon, UK) before being diluted 1:100 in ISB prior to inoculation
# (§10) The assays were performed by microdilution using 96-well microtiter plates with a final inoculum of 5 × 10^5 CFU/mL and each sample was tested in duplicate in at least two independent experiments in order to confirm the reliability of the data. Results were determined by visual inspection of the wells and the presence of an evident opaque medium or white pellets were indicative of bacterial growth. The MIC values were recorded as the lowest concentration at which no bacterial growth was detected.
# (§11) Table S4. Minimum inhibitory concentration (MIC) of synthesised peptides and of reference antibiotics
# (§12) novobiocin and norfloxacin.
# [4] = system: Staphylococcus aureus NCTC 12981; assay: microbe, parasite or virus in culture; type: cell-based; conditions: for MIC: Staphylococcus aureus, NCTC12981, compound alone, broth microdilution, Iso-Sensitest Broth, range 128–0 μg/mL, 5 × 10^5 CFU/mL, visual read-out, duplicate, read-out: MIC, S. aureus NCTC 12981
# Protocol: as §8, §2, §9, §10, §11, §12
# [5] = system: multi-drug resistant clinical isolate E. coli G69; assay: Novobiocin potentiation assay (MIC of novobiocin with fixed concentration of peptide or PAβN); type: cell-based, Escherichia coli; set-up: key to MIC of Novobiocin, E. coli G69, +32 μg/mL added peptide / MIC of Novobiocin, E. coli G69, +128 μg/mL added peptide: Non potentiating (NP) indicated no reduction in the MIC of novobiocin was observed; conditions: for MIC of Novobiocin, E. coli G69, +128 μg/mL added peptide / MIC of Novobiocin, E. coli G69, +32 μg/mL added peptide: Iso-Sensitest Broth, 5 × 10^5 CFU/mL, visual read-out; for MIC of Novobiocin, E. coli G69, +128 μg/mL added peptide: fixed 128 μg/mL peptide; for MIC of Novobiocin, E. coli G69, +32 μg/mL added peptide: fixed 32 μg/mL peptide
# Protocol: (§13) The peptides were also tested in combination with antibiotics novobiocin and norfloxacin. Novobiocin has low efficacy against Gram-negative bacteria due to its hydrophobicity, giving limited cell permeability.
# as §2, §9, §10
# [6] = system: susceptible E. coli NCTC 10418; assay: as above; type: cell-based, Escherichia coli; set-up: key to MIC of Novobiocin, E. coli NCTC 10418, +128 μg/mL added peptide / MIC of Novobiocin, E. coli NCTC 10418, +32 μg/mL added peptide: Non potentiating (NP) indicated no reduction in the MIC of novobiocin was observed; conditions: for MIC of Novobiocin, E. coli NCTC 10418, +128 μg/mL added peptide / MIC of Novobiocin, E. coli NCTC 10418, +32 μg/mL added peptide: Iso-Sensitest Broth, 5 × 10^5 CFU/mL, visual read-out; for MIC of Novobiocin, E. coli NCTC 10418, +128 μg/mL added peptide: fixed 128 μg/mL peptide; for MIC of Novobiocin, E. coli NCTC 10418, +32 μg/mL added peptide: fixed 32 μg/mL peptide
# Protocol: as §13, §2, §9, §10
Molecule,"MIC of norfloxacin, E. coli G69, +128 μg/mL of peptide [1]","MIC of norfloxacin, E. coli 10418, +128 μg/mL of peptide [2]","MIC of Novobiocin, E. coli G69, +128 μg/mL added peptide ([5]; broth microdilution, duplicate)","MIC of Novobiocin, E. coli NCTC 10418, +128 μg/mL added peptide ([6]; broth microdilution, duplicate)","MIC of Novobiocin, E. coli NCTC 10418, +32 μg/mL added peptide ([6]; broth microdilution, duplicate)",further results
"CCn1cc(C(=O)O)c(=O)c2cc(F)c(N3CCNCC3)cc21 [Norfloxacin, reference compound]",,,,,,"MIC ([1]; Escherichia coli, norfloxacin alone): > 128 µg/mL; MIC ([2]; Escherichia coli, E.COLI10418, norfloxacin alone): 0.062 µg/mL; MIC [3]: 0.062 µg/mL; MIC [4]: 2 µg/mL"
CO[C@@H]1[C@@H](OC(N)=O)[C@@H](O)[C@H](Oc2ccc3c(O)c(NC(=O)c4ccc(O)c(CC=C(C)C)c4)c(=O)oc3c2C)OC1(C)C [Novobiocin],,,,,,"MIC ([5]; Escherichia coli, novobiocin alone, no peptide, broth microdilution, duplicate): > 128 µg/mL; MIC [3]: 32 µg/mL; MIC [4]: 4 µg/mL; MIC ([6]; Escherichia coli, NCTC10418, novobiocin alone, no peptide, broth microdilution, duplicate): 32 µg/mL"
"WKPLPPR [Compound 24, proline-rich cationic peptide WKPLPPR, amidated at the C-terminus]",> 128 µg/mL,0.062 µg/mL,NP,NP,,"potentiation of the MIC of novobiocin, result in words ([6]; added peptide, wording covers susceptible and multi-drug resistant strain): no synergism was observed"
"WKWKW [Compound 15, short cationic peptide WKWKW, amidated at the C-terminus]",> 128 µg/mL,0.125 µg/mL,8 µg/mL,4 µg/mL,8 µg/mL,"potentiation of novobiocin against multi-drug resistant E. coli, result in words ([5]; E. coli G69, added peptide): restore the susceptibility; MIC of Novobiocin, E. coli G69, +32 μg/mL added peptide ([5]; broth microdilution, duplicate): 128 µg/mL"
"WRRQRW [Compound 20, short cationic peptide WRRQRW, C-terminal amide; commercial sample from ThermoFisher]",> 128 µg/mL,0.062 µg/mL,32 µg/mL,4 µg/mL,16 µg/mL,"MIC of Novobiocin, E. coli G69, +32 μg/mL added peptide ([5]; broth microdilution, duplicate): NP"
"WRWR [Compound 4, short cationic peptide WRWR, amidated at the C-terminus]",> 128 µg/mL,0.062 µg/mL,NP,2 µg/mL,32 µg/mL,
WRWRW-NH2 [Compound 6],,,,,,"MIC, E. coli NCTC 10418 ([3]; NCTC 10418, 24 h): 64 µg/mL; MIC, S. aureus NCTC 12981 ([4]; NCTC 12981, 24 h): 64 µg/mL"
